Source: US20250129069A1, “TRIAZOLO WRN INHIBITORS” (Nimbus Wadjet, Inc., priority 2023, published 2025)
Where two headings read alike, the source gives them in different places.

How the values were obtained:
[1] = tested on: p21 induction in HCT 116 cells; test: p21 induction in cells (In-Cell Western, p21/GAPDH ratio); format: cell-based; settings: 24 h compound incubation, read-out: p21_EC50
In short: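 HCT 116 cells treated 24 h at 37° C with 11-point, 2-fold dilutions typically from 10 μM, in duplicate. Fixed cells co-stained for p21 (800 nm) and GAPDH (700 nm) by In-Cell Western. p21/GAPDH ratio normalised between DMSO and reference WRN inhibitor controls, and EC50 obtained by nonlinear regression.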

[2] = target: human Werner helicase (WRN, amino acids 517-1235 with L1074F point mutation) (Homo sapiens (Human), UniProt Q14191, L1074F); test: WRN (BV08) ADP-Glo assay; format: biochemical; settings: human WRN (aa 517-1235, L1074F), read-out: ADP-Glo_hWRN_IC50
In short: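 Untagged WRN 517-1235 (L1074F), Sf9/baculovirus-expressed, 0.15 nM, preincubated 15 min with compound, then 5 μM ATP and 0.1 nM annealed DNA duplex added; 60 min at 25 °C in Bicine pH 7.5, 1 mM MgCl2, 1% DMSO. ADP-Glo luminescence; % inhibition vs DMSO and 20 μM NSC-617145 controls, four-parameter IC50 fit.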

Chain of human Werner helicase (WRN, amino acids 517-1235 with L1074F point mutation) (Q14191 other isoform, or with tags, fused parts or gaps L1074F (already in the parent)): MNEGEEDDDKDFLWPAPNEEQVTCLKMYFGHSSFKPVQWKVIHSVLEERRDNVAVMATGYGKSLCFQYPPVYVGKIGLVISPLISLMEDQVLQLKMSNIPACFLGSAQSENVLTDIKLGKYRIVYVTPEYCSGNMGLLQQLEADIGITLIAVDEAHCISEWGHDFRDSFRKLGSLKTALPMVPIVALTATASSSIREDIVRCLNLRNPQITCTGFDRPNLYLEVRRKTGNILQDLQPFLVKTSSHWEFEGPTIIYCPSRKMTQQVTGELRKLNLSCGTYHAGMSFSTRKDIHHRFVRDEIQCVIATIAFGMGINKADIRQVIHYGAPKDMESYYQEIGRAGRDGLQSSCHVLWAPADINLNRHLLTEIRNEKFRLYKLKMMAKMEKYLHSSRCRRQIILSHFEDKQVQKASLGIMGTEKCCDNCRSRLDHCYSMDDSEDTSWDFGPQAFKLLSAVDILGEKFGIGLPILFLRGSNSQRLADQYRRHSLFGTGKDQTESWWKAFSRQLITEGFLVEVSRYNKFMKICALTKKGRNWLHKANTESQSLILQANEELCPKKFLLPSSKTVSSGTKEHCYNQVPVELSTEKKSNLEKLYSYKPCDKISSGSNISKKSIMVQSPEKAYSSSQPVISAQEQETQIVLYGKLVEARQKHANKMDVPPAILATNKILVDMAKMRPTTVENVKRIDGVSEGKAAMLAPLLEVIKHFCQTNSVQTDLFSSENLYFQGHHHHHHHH

`CCc1c(N2CCN(C(=O)c3ncnc(C)c3O)[C@H]3CC[C@@H]32)c(=O)c2nn(-c3ccccn3)nc2n1CC(=O)NC12CC(C(C)C)(C1)C2` [Compound I-90, 2-{5-ethyl-6-[(1S,6S)-5-(5-hydroxy-6-methylpyrimidine-4-carbonyl)-2,5-diazabicyclo[4.2.0]octan-2-yl]-7-oxo-2-(pyridin-2-yl)-2H,4H,7H-[1,2,3]triazolo[4,5-b]pyridin-4-yl}-N-[3-(propan-2-yl)bicyclo[1.1.1]pentan-1-yl]acetamide] was tested, and the EC50 [1] was at most 500 nM and the IC50 [2] was 5 to 50 nM.
`CCc1c(N2CCN(C(=O)c3c(O)ccnc3OC)CC2)c(=O)c2nn(-c3ccnc(OC)c3)nc2n1CC(=O)NC12CC(C(F)(F)F)(C1)C2` [Compound I-143, 2-{5-ethyl-6-[4-(4-hydroxy-2-methoxypyridine-3-carbonyl)piperazin-1-yl]-2-(2-methoxypyridin-4-yl)-7-oxo-2H,4H,7H-[1,2,3]triazolo[4,5-b]pyridin-4-yl}-N-[3-(trifluoromethyl)bicyclo[1.1.1]pentan-1-yl]acetamide] showed an EC50 ([1]; Homo sapiens) of 500 to 2000 nM and an IC50 [2] of 5 to 50 nM.
Molecule `CCc1c(N2CCN(C(=O)c3ncnc(C)c3O)[C@H]3CC[C@@H]32)c(=O)c2nn(-c3ccnc(OC)c3)nc2n1CC(=O)NC1CCC2(CCC2)C1` (stereo partly drawn) [Compound I-66, 2-{5-ethyl-6-[(1S,6S)-5-(5-hydroxy-6-methylpyrimidine-4-carbonyl)-2,5-diazabicyclo[4.2.0]octan-2-yl]-2-(2-methoxypyridin-4-yl)-7-oxo-2H,4H,7H-[1,2,3]triazolo[4,5-b]pyridin-4-yl}-N-{spiro[3.4]octan-6-yl}acetamide] has an EC50 ([1]; Homo sapiens) of at most 500 nM and an IC50 [2] of 5 to 50 nM.
`CCc1c(N2CCN(C(=O)c3ncnc(C)c3O)[C@H]3CC[C@@H]32)c(=O)c2nn(C3=CCOCC3)nc2n1CC(=O)NC12CC(C3CC3)(C1)C2` [Compound I-31, N-{3-cyclopropylbicyclo[1.1.1]pentan-1-yl}-2-[2-(3,6-dihydro-2H-pyran-4-yl)-5-ethyl-6-[(1S,6S)-5-(5-hydroxy-6-methylpyrimidine-4-carbonyl)-2,5-diazabicyclo[4.2.0]octan-2-yl]-7-oxo-2H,4H,7H-[1,2,3]triazolo[4,5-b]pyridin-4-yl]acetamide] gave an EC50 [1] of at most 500 nM and an IC50 [2] of 5 to 50 nM.
`CCc1c(N2CCN(C(=O)c3ccccn3)[C@H]3CC[C@@H]32)c(=O)c2nn(C3=CCOCC3)nc2n1CC(=O)NC12CC(C(C)C)(C1)C2` [Compound I-184, 2-[2-(3,6-dihydro-2H-pyran-4-yl)-5-ethyl-7-oxo-6-[(1S,6S)-5-(pyridine-2-carbonyl)-2,5-diazabicyclo[4.2.0]octan-2-yl]-2H,4H,7H-[1,2,3]triazolo[4,5-b]pyridin-4-yl]-N-[3-(propan-2-yl)bicyclo[1.1.1]pentan-1-yl]acetamide] gave an EC50 ([1]; Homo sapiens) of 500 to 2000 nM and an IC50 [2] of 5 to 50 nM.
In the case of `CCc1c(N2CCN(C(=O)c3ncnc(C)c3O)[C@H]3CC[C@@H]32)c(=O)c2nn(-c3ccnc(OC)c3)nc2n1CC(=O)NC12CC(C3CC3)(C1)C2` [Compound I-30, N-{3-cyclopropylbicyclo[1.1.1]pentan-1-yl}-2-{5-ethyl-6-[(1S,6S)-5-(5-hydroxy-6-methylpyrimidine-4-carbonyl)-2,5-diazabicyclo[4.2.0]octan-2-yl]-2-(2-methoxypyridin-4-yl)-7-oxo-2H,4H,7H-[1,2,3]triazolo[4,5-b]pyridin-4-yl}acetamide], the EC50 [1] is reported as at most 500 nM and the IC50 [2] is reported as 5 to 50 nM.
In the case of `CCc1c(N2CCN(C(=O)c3c(OC)ncc(C4CCOC4)c3O)CC2)c(=O)c2nn(-c3ccnc(OC)c3)nc2n1CC(=O)NC12CC(C(C)C)(C1)C2` (stereo not shown) [Compound I-75, 2-(5-ethyl-6-{4-[4-hydroxy-2-methoxy-5-(oxolan-3-yl)pyridine-3-carbonyl]piperazin-1-yl}-2-(2-methoxypyridin-4-yl)-7-oxo-2H,4H,7H-[1,2,3]triazolo[4,5-b]pyridin-4-yl)-N-[3-(propan-2-yl)bicyclo[1.1.1]pentan-1-yl]acetamide], the EC50 ([1]; Homo sapiens) is reported as 500 to 2000 nM and the IC50 [2] is reported as 5 to 50 nM.
Molecule `CCc1c(N2CCN(C(=O)c3ncnc(C)c3O)[C@H]3CC[C@@H]32)c(=O)c2nn(-c3ccnc(OC)c3)nc2n1CC(=O)Nc1ccc(C(F)(F)F)cc1F` [Compound I-126, 2-{5-ethyl-6-[(1S,6S)-5-(5-hydroxy-6-methylpyrimidine-4-carbonyl)-2,5-diazabicyclo[4.2.0]octan-2-yl]-2-(2-methoxypyridin-4-yl)-7-oxo-2H,4H,7H-[1,2,3]triazolo[4,5-b]pyridin-4-yl}-N-[2-fluoro-4-(trifluoromethyl)phenyl]acetamide] has an EC50 ([1]; Homo sapiens) of at most 500 nM and an IC50 [2] of at most 5 nM.
In the case of `CCc1c(N2CCN(C(=O)c3ncnc(C)c3O)[C@H]3CC[C@@H]32)c(=O)c2nn(C3=CCOCC3)nc2n1CC(=O)Nc1ccc(C(F)F)cc1F` [Compound I-154, N-[4-(difluoromethyl)-2-fluorophenyl]-2-[2-(3,6-dihydro-2H-pyran-4-yl)-5-ethyl-6-[(1S,6S)-5-(5-hydroxy-6-methylpyrimidine-4-carbonyl)-2,5-diazabicyclo[4.2.0]octan-2-yl]-7-oxo-2H,4H,7H-[1,2,3]triazolo[4,5-b]pyridin-4-yl]acetamide], the EC50 ([1]; Homo sapiens) is reported as at most 500 nM and the IC50 [2] is reported as 5 to 50 nM.
Work on `CCc1c(N2CCN(C(=O)c3ccncc3OC)[C@H]3CC[C@@H]32)c(=O)c2nn(C3=CCOCC3)nc2n1CC(=O)NC12CC(C(C)C)(C1)C2` [Compound I-208, 2-[2-(3,6-dihydro-2H-pyran-4-yl)-5-ethyl-6-[(1S,6S)-5-(3-methoxypyridine-4-carbonyl)-2,5-diazabicyclo[4.2.0]octan-2-yl]-7-oxo-2H,4H,7H-[1,2,3]triazolo[4,5-b]pyridin-4-yl]-N-[3-(propan-2-yl)bicyclo[1.1.1]pentan-1-yl]acetamide] yielded an EC50 ([1]; Homo sapiens) of 500 to 2000 nM and an IC50 [2] of 5 to 50 nM.
With `CCc1c(N2CCN(C(=O)c3ncccc3OC)[C@H]3CC[C@@H]32)c(=O)c2nn(C3=CCOCC3)nc2n1CC(=O)NC12CC(C(C)C)(C1)C2` [Compound I-204, 2-[2-(3,6-dihydro-2H-pyran-4-yl)-5-ethyl-6-[(1S,6S)-5-(3-methoxypyridine-2-carbonyl)-2,5-diazabicyclo[4.2.0]octan-2-yl]-7-oxo-2H,4H,7H-[1,2,3]triazolo[4,5-b]pyridin-4-yl]-N-[3-(propan-2-yl)bicyclo[1.1.1]pentan-1-yl]acetamide] the EC50 ([1]; Homo sapiens) was 500 to 2000 nM and the IC50 [2] was 5 to 50 nM.
For `CCc1c(N2CCN(C(=O)c3c(O)ccc4ncoc34)CC2)c(=O)c2nn(C(C)C)nc2n1CC(=O)Nc1ccc(C(F)(F)F)cc1Cl` [Compound I-139, N-[2-chloro-4-(trifluoromethyl)phenyl]-2-{5-ethyl-6-[4-(6-hydroxy-1,3-benzoxazole-7-carbonyl)piperazin-1-yl]-7-oxo-2-(propan-2-yl)-2H,4H,7H-[1,2,3]triazolo[4,5-b]pyridin-4-yl}acetamide], the EC50 ([1]; Homo sapiens) was at most 500 nM and the IC50 [2] was at most 5 nM.
`CCc1c(N2CCN(C(=O)c3c(O)ccc4ncoc34)CC2)c(=O)c2nn(-c3ccnc(OC)c3)nc2n1CC(=O)NC12CC(C(F)(F)F)(C1)C2` [Compound I-3, 2-(5-ethyl-6-(4-(6-hydroxybenzo[d]oxazole-7-carbonyl)piperazin-1-yl)-2-(2-methoxypyridin-4-yl)-7-oxo-2,7-dihydro-4H-[1,2,3]triazolo[4,5-b]pyridin-4-yl)-N-(3-(trifluoromethyl)bicyclo[1.1.1]pentan-1-yl)acetamide] showed an EC50 [1] of at most 500 nM and an IC50 [2] of 5 to 50 nM.
Molecule `CCc1c(N2CCN(C(=O)c3c(C#N)cncc3OC)[C@H]3CC[C@@H]32)c(=O)c2nn(C3=CCOCC3)nc2n1CC(=O)NC12CC(C(C)C)(C1)C2` [Compound I-168, 2-{6-[(1S,6S)-5-(3-cyano-5-methoxypyridine-4-carbonyl)-2,5-diazabicyclo[4.2.0]octan-2-yl]-2-(3,6-dihydro-2H-pyran-4-yl)-5-ethyl-7-oxo-2H,4H,7H-[1,2,3]triazolo[4,5-b]pyridin-4-yl}-N-[3-(propan-2-yl)bicyclo[1.1.1]pentan-1-yl]acetamide] has an EC50 ([1]; Homo sapiens) of 500 to 2000 nM and an IC50 [2] of 5 to 50 nM.
Work on `CCc1c(N2CCN(C(=O)c3ncnc(C)c3O)CC2)c(=O)c2nn(-c3cnn(C4CC4)c3)nc2n1CC(=O)Nc1ccc(C(F)(F)F)cc1Cl` [Compound I-112, N-[2-chloro-4-(trifluoromethyl)phenyl]-2-[2-(1-cyclopropyl-1H-pyrazol-4-yl)-5-ethyl-6-[4-(5-hydroxy-6-methylpyrimidine-4-carbonyl)piperazin-1-yl]-7-oxo-2H,4H,7H-[1,2,3]triazolo[4,5-b]pyridin-4-yl]acetamide] yielded an EC50 ([1]; Homo sapiens) of at most 500 nM and an IC50 [2] of 5 to 50 nM.
With `CCc1c(N2CCN(C(=O)c3nocc3O)[C@H]3CC[C@@H]32)c(=O)c2nn(C3=CCOCC3)nc2n1CC(=O)NC12CC(C(C)C)(C1)C2` [Compound I-171, 2-[2-(3,6-dihydro-2H-pyran-4-yl)-5-ethyl-6-[(1S,6S)-5-(4-hydroxy-1,2-oxazole-3-carbonyl)-2,5-diazabicyclo[4.2.0]octan-2-yl]-7-oxo-2H,4H,7H-[1,2,3]triazolo[4,5-b]pyridin-4-yl]-N-[3-(propan-2-yl)bicyclo[1.1.1]pentan-1-yl]acetamide] the EC50 ([1]; Homo sapiens) was at most 500 nM and the IC50 [2] was at most 5 nM.
Molecule `CCc1c(N2CCN(C(=O)c3cnn(C)c3OC)[C@H]3CC[C@@H]32)c(=O)c2nn(C3=CCOCC3)nc2n1CC(=O)NC12CC(C(C)C)(C1)C2` [Compound I-210, 2-[2-(3,6-dihydro-2H-pyran-4-yl)-5-ethyl-6-[(1S,6S)-5-(5-methoxy-1-methyl-1H-pyrazole-4-carbonyl)-2,5-diazabicyclo[4.2.0]octan-2-yl]-7-oxo-2H,4H,7H-[1,2,3]triazolo[4,5-b]pyridin-4-yl]-N-[3-(propan-2-yl)bicyclo[1.1.1]pentan-1-yl]acetamide] has an EC50 ([1]; Homo sapiens) of 500 to 2000 nM and an IC50 [2] of 5 to 50 nM.
